Data taken from ChEMBL document CHEMBL5331140, “Discovery of IACS-52825, a Potent and Selective DLK Inhibitor for Treatment of Chemotherapy-Induced Peripheral Neuropathy” (J Med Chem, 2023).
Values after ≈ are worked out from the molar mass of the structure shown.

Key:
[1] = Metabolic stability in human liver microsomes assessed as intrinsic clearance at 1 uM in presence of NADPH regenerating system measured for 45 mins by LC-MS/MS analysis; assay type: ADME, Microsome; settings: read-out: CLH
[2] = Plasma protein binding in dog at 5 uM incubated for 5 hrs by rapid equilibrium dialysis method; assay type: ADME, cell-free, Canis lupus familiaris; settings: read-out: PPB (converted)
[3] = Toxicity in monkey assessed as optic nerve swelling measured after 28 days by IND-enabling study; design: species or system Macaca mulatta; settings: rhesus monkey, in vivo, 672 h; time 28 day
[4] = Protein binding in mouse brain homogenate incubated for 5 hrs by UPLC-MS/MS analysis; assay type: ADME, tissue-based; settings: read-out: PB (converted)
[5] = Metabolic stability in monkey hepatocytes assessed as intrinsic clearance at 2 uM measured for 120 mins by LC-MS analysis; assay type: ADME, cell-based, Macaca mulatta, Hepatocyte; settings: rhesus monkey, read-out: CLH
[6] = Plasma clearance in C57BL/6 mouse at 0.3 mg/kg, iv administered via tail vein and measured for 24 hrs by LC-MS/MS analysis; assay type: ADME, organism-based
[7] = Thermodynamic aqueous solubility of compound in FaSSGF at pH 1.6 incubated for 1 hr under shaking condition by LC-MS/MS analysis; assay type: physicochemical; settings: read-out: Therm_solubility
[8] = Metabolic stability in monkey liver microsomes assessed as intrinsic clearance at 1 uM in presence of NADPH regenerating system measured for 45 mins by LC-MS/MS analysis; assay type: ADME, Macaca mulatta, Microsome; settings: rhesus monkey, read-out: CLH
[9] = AUClast in cynomolgus monkey at 1 mg/kg, po or 0.3 mg/kg, iv measured for 24 hrs by LC-MS/MS analysis; assay type: ADME, organism-based, Macaca fascicularis; design: dose 1 mg/kg, time 24 hrs, route po; settings: in vivo
[10] = AUClast in Beagle dog at 1 mg/kg, po or 0.3 mg/kg, iv measured for 24 hrs by LC-MS/MS analysis; assay type: ADME, organism-based, Canis lupus familiaris; design: time 24 hrs, dose 1 mg/kg, route po; settings: in vivo
Cytochrome P450 3A4 = Cytochrome P450 3A4 (Homo sapiens, UniProt P08684); test: Inhibition of CYP3A4 in human liver microsomes using testosterone as substrate incubated for 5 mins in presence of NADPH by LC-MS/MS analysis; assay type: ADME, Microsome
Cytochrome P450 3A4, sequence (P08684 whole entry): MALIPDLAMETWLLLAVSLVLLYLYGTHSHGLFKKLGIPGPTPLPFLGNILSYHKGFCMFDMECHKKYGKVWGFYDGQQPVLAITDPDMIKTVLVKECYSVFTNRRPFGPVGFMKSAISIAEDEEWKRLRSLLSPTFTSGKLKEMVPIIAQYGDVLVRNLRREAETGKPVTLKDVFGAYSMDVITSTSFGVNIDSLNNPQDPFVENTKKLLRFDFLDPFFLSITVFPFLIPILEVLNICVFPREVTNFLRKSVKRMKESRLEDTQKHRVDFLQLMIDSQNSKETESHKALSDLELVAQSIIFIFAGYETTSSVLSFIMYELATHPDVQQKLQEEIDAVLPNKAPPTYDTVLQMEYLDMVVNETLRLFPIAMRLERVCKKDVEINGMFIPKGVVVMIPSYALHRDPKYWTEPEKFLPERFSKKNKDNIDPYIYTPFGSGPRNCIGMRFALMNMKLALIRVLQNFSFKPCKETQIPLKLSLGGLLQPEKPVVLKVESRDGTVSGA

[11] = Thermodynamic aqueous solubility of compound in FeSSIF at pH 5 incubated for 1 hr under shaking condition by LC-MS/MS analysis; assay type: physicochemical; settings: read-out: Therm_solubility
[12] = Thermodynamic aqueous solubility of compound in FaSSIF at pH 6.5 incubated for 1 hr under shaking condition by LC-MS/MS analysis; assay type: physicochemical; settings: read-out: Therm_solubility
[13] = Metabolic stability in mouse liver microsomes assessed as intrinsic clearance at 1 uM in presence of NADPH regenerating system measured for 45 mins by LC-MS/MS analysis; assay type: ADME, Microsome; settings: read-out: CLH
Mus musculus = test: Antiallodynic activity in po dosed C57BL/6 mouse model of cisplatin-induced mechanical allodynia assessed as increase in paw withdrawal threshold stimulated with cisplatin on day 1 to 5 and 10 to 15 followed by daily administration of compound starting from day 16 and measured for 43 days by von frey test; assay type: functional, organism-based; settings: dose 3-30 mg/kg, time 28.0 day
[14] = Ratio of unbound drug concentration in C57BL/6 mouse brain to plasma at 0.3 mg/kg, iv measured for 24 hrs by LC-MS/MS analysis; assay type: ADME, organism-based; settings: brain and plasma, read-out: K(p,uu,brain)
[15] = Half life in Beagle dog at 1 mg/kg, po or 0.3 mg/kg, iv measured for 24 hrs by LC-MS/MS analysis; assay type: ADME, organism-based, Canis lupus familiaris; settings: in vivo
[16] = Oral bioavailability in C57BL/6 mouse at 10 mg/kg administered via oral gavage and measured for 24 hrs by LC-MS/MS analysis; assay type: ADME, organism-based; settings: C57BL/6, mouse, in vivo
[17] = Metabolic stability in rat liver microsomes assessed as intrinsic clearance at 1 uM in presence of NADPH regenerating system measured for 45 mins by LC-MS/MS analysis; assay type: ADME, Microsome; settings: read-out: CLH
[18] = Binding affinity to full length human DLK (1 to 859 residues)/NFkappaB DNA binding domain (unknown origin) fusion protein transfected in HEK293 cells assessed as dissociation constant incubated for 1 hr by Kinomescan assay; assay type: cell-based
[19] = Thermodynamic aqueous solubility of compound in phosphate buffer at pH 7 incubated for 1 hr under shaking condition by LC-MS/MS analysis; assay type: physicochemical; settings: read-out: Therm_solubility
[20] = Half life in cynomolgus monkey at 1 mg/kg, po or 0.3 mg/kg, iv measured for 24 hrs by LC-MS/MS analysis; assay type: ADME, organism-based, Macaca fascicularis; settings: in vivo
[21] = Plasma protein binding in mouse at 5 uM incubated for 5 hrs by rapid equilibrium dialysis method; assay type: ADME, cell-free; settings: read-out: PPB (converted)
[22] = Metabolic stability in dog hepatocytes assessed as intrinsic clearance at 2 uM measured for 120 mins by LC-MS analysis; assay type: ADME, cell-based, Canis lupus familiaris, Hepatocyte; settings: read-out: CLH
[23] = Metabolic stability in dog liver microsomes assessed as intrinsic clearance at 1 uM in presence of NADPH regenerating system measured for 45 mins by LC-MS/MS analysis; assay type: ADME, Canis lupus familiaris, Microsome; settings: read-out: CLH
[24] = Permeability in wild type MDCK cells across basolateral to apical side at 5 uM incubated for 90 mins by LC-MS/MS analysis; assay type: ADME, cell-based, Canis lupus familiaris; settings: dog, read-out: permeability
[25] = Permeability in MDCK-MDR1 cells across apical to basolateral side at 5 uM incubated for 90 mins by LC-MS/MS analysis; assay type: ADME, cell-based, Canis lupus familiaris; settings: dog, read-out: permeability

CLint scaled at 1 µM [1]: 3 mL/min/kg
fraction unbound at 5 h, 5 µM [2]: 0.053
fraction unbound at 5 h [4]: 0.039
CLint scaled at 2 µM [5]: 23 mL/min/kg
clearance [6]: 4.3 mL/min/kg
solubility thermodynamic at 1 h [7]: 20600 µM (≈ 8790 µg/mL)
CLint scaled at 1 µM [8]: 11 mL/min/kg
AUC(0-t) at 24 h [9]: 4.7 µM·h
AUC(0-t) at 24 h [10]: 15.3 µM·h
IC50 (Cytochrome P450 3A4): > 10000 nM
solubility thermodynamic at 1 h [11]: 152 µM (≈ 64.8 µg/mL)
solubility thermodynamic at 1 h [12]: 38 µM (≈ 16.2 µg/mL)
CLint scaled at 1 µM [13]: 14 mL/min/kg
Kp uu at 24 h [14]: 0.92
half-life [15]: 8.5 h
bioavailability [16]: > 100%
CLint scaled at 1 µM [17]: 16 mL/min/kg
solubility thermodynamic at 1 h [19]: 33 µM (≈ 14.1 µg/mL)
half-life [20]: 7.2 h
fraction unbound at 5 h, 5 µM [21]: 0.075
CLint scaled at 2 µM [22]: 9.2 mL/min/kg
CLint scaled at 1 µM [23]: 12 mL/min/kg
Papp B→A at 1.5 h, 5 µM [24]: 31 ×10⁻⁶ cm/s
Papp A→B at 1.5 h, 5 µM [25]: 43 ×10⁻⁶ cm/s
SMILES: Nc1ncc(-c2cn(C34CC(F)(C3)C4)c([C@@H](O)C(F)(F)F)n2)cc1OC(F)(F)F
Activity [3]: Toxic
Activity (Mus musculus): Dose-Dependent Effect
Kd [18]: 1.3 nM
